In US10174021B2, “Substituted pyrazolo[1,5-A]pyridines and their use” (BAYER PHARMA AKTIENGESELLSCHAFT, priority 2014, dated 2019):
Where a name gives a salt, the structure may show the parent alone.

Tested on: recombinant guanylate cyclase reporter cell line
Assay: Effect on a recombinant guanylate cyclase reporter cell line
Assay type: cell-based
Conditions: in some cases mean values from individual determinations, read-out: MEC (minimum effective concentration)
Description: B-2. Effect on a Recombinant Guanylate Cyclase Reporter Cell Line
The cellular activity of the compounds according to the invention is determined using a recombinant guanylate cyclase reporter cell line, as described in F. Wunder et al., Anal. Biochem. 339, 104-112 (2005).
Representative MEC values (MEC=minimum effective concentration) for the compounds of the invention are shown in the table below (in some cases as mean values from individual determinations): […]

Work on Cc1cc(OCc2c(F)cccc2F)n2nc(C)c(-c3cncc(C(=O)O)c3)c2c1 [Example 27, 5-{7-[(2,6-Difluorobenzyl)oxy]-2,5-dimethylpyrazolo[1,5-a]pyridin-3-yl}nicotinic acid] yielded a minimal effective concentration of 2 µM.

Cc1cc(OCc2c(F)cccc2F)n2nc(C)c(-c3cncc(C(N)=O)c3)c2c1 [Example 28, 5-{7-[(2,6-Difluorobenzyl)oxy]-2,5-dimethylpyrazolo[1,5-a]pyridin-3-yl}nicotinamide] showed a minimal effective concentration of 0.03 µM.

Work on Cc1cc(OCc2c(F)cccc2F)n2nc(C)c(-c3cncnc3)c2c1 [Example 29, 7-[(2,6-Difluorobenzyl)oxy]-2,5-dimethyl-3-(pyrimidin-5-yl)pyrazolo[1,5-a]pyridine] yielded a minimal effective concentration of 0.3 µM.

Cc1cc(OCc2c(F)cccc2F)n2nc(C3CC3)c(-c3cnn(CCN4CCOCC4)c3)c2c1 [Example 30, 2-Cyclopropyl-7-[(2,6-difluorobenzyl)oxy]-5-methyl-3-{1-[2-(morpholin-4-yl)ethyl]-1H-pyrazol-4-yl}pyrazolo[1,5-a]pyridine] gave a minimal effective concentration of 0.01 µM.

With Cc1cc(OCc2c(F)cccc2F)n2nc(C3CC3)c(-c3cn[nH]c3)c2c1 [Example 31, 2-Cyclopropyl-7-[(2,6-difluorobenzyl)oxy]-5-methyl-3-(1H-pyrazol-4-yl)pyrazolo[1,5-a]pyridine] the minimal effective concentration was 0.03 µM.

Cc1cc(OCc2c(F)ccc(F)c2F)n2nc(C)c(-c3cnn(CCN4CCOCC4)c3)c2c1 [Example 32, 2,5-Dimethyl-3-{1-[2-(morpholin-4-yl)ethyl]-1H-pyrazol-4-yl}-7-[(2,3,6-trifluorobenzyl)oxy]pyrazolo[1,5-a]pyridine trifluoroacetate] showed a minimal effective concentration of 0.1 µM.

Cc1cc(OCC2CCCCC2)n2nc(C)c(-c3cnn(CCN4CCOCC4)c3)c2c1 [Example 33, 7-(Cyclohexylmethoxy)-2,5-dimethyl-3-{1-[2-(morpholin-4-yl)ethyl]-1H-pyrazol-4-yl}pyrazolo[1,5-a]pyridine] gave a minimal effective concentration of 0.1 µM.

Cc1cc(OCc2c(F)cccc2F)n2nc(C)c(-c3nc(N)c4c(n3)NC(=O)C4(C)C)c2c1 [Example 34, 4-Amino-2-{7-[(2,6-difluorobenzyl)oxy]-2,5-dimethylpyrazolo[1,5-a]pyridin-3-yl}-5,5-dimethyl-5,7-dihydro-6H-pyrrolo[2,3-d]pyrimidin-6-one trifluoroacetate] showed a minimal effective concentration of 1 µM.

Work on Cc1cc(OCc2c(F)cccc2F)n2nc(C)c(-c3nc(NCC(C)(C)N)c4c(n3)NC(=O)C4(C)C)c2c1 [Example 35, 4-[(2-Amino-2-methylpropyl)amino]-2-{7-[(2,6-difluorobenzyl)oxy]-2,5-dimethylpyrazolo[1,5-a]pyridin-3-yl}-5,5-dimethyl-5,7-dihydro-6H-pyrrolo[2,3-d]pyrimidin-6-one] yielded a minimal effective concentration of 3 µM.
